ChEMBL document CHEMBL5728225, “Modulators of P97 AAA ATPase activity” (2021)
Several values for one entry are separate records, joined by “and”; a condition that tells them apart may be missing. Equal values may be shown once.

Assay: Biomol Green Assay: Biomol Green (Enzo) […] formed from a biochemical reaction. Because of its high sensitivity, the assay is suitable for monitoring enzyme activities at very early substrate conversions requiring very low amount of enzymes.

IC50 | SMILES
0.025 µM and 0.015 µM | Cc1cc(OCc2nnc(SC3C=CCCC3)n2-c2cccnc2)ccc1C#CCOC(=O)NN1CCN(C)CC1 (stereo not drawn)
0.026 µM | Cc1cc(OCc2cnc(SC3C=CCCC3)n2-c2cccnc2)ccc1C#CCOC(=O)NCCN1CCN(C(C)C)CC1 (stereo not drawn)
0.26 µM | Cc1cc(OCc2nnc(CC3CCCC3)n2-c2cccnc2)ccc1C#CCNC(=O)OC(C)(C)C
